According to patent US20090203577A1 (EXELIXIS, INC., priority 2005, published 2009):
Where two headings read alike, the source gives them in different places.

Target: T1, human farnesoid X receptor (Homo sapiens, UniProt Q96RI1)
T1 construct: CMX-farnesoid X receptor (full length human farnesoid X receptor); expressed in transfected cells; host or cells: CV-1 African Green Monkey Kidney cells
T1 sequence (Q96RI1 1-472 isoform Q96RI1-2): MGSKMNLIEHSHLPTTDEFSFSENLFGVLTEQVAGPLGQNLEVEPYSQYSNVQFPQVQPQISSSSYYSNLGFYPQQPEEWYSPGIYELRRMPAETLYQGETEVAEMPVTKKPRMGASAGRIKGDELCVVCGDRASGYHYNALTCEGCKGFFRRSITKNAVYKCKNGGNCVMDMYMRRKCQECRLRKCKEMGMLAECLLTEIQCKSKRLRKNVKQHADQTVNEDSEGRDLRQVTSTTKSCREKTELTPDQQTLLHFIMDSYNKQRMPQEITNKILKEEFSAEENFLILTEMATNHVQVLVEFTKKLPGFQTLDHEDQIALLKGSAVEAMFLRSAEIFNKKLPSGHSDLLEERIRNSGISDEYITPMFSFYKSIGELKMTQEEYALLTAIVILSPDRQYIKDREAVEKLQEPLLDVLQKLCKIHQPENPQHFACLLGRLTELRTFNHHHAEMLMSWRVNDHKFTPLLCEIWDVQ
T1 sequence (P19793 1-462 partner): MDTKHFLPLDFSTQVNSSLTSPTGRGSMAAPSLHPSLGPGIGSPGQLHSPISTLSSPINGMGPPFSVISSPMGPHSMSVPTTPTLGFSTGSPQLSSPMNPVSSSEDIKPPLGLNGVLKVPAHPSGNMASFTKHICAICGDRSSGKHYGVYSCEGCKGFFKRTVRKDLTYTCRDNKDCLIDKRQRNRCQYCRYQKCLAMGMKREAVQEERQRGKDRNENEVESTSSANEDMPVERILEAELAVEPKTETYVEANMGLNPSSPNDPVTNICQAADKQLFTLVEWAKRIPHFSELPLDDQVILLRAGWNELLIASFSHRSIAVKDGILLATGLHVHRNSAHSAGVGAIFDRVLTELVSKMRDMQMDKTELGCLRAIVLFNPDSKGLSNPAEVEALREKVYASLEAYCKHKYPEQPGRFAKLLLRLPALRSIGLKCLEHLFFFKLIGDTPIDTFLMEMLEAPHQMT
Experiment: FXR in vitro assays (farnesoid X receptor/ECREx7 co-transfection assay, TR-FRET assay), Table I
Assay type: cell-based
Settings: for Emax: read-out: % Efficacy
Procedure: The basic co-transfection protocol for measuring the farnesoid X receptor activity is as follows. CV-1 African Green Monkey Kidney cells were plated 24 hours before transfection to achieve approximately 70-80 percent confluency. […] The assay was allowed to continue for an additional 18-20 hours, after which the cells were lysed, with lysis buffer (1% triton X 100, 10% glycerol, 5 mM Dithiothreitol, 1 mM EGTA, 25 mM Tricine, pH 7.8) and the luciferase activity measured in the presence of Luciferase assay buffer (0.73 mM ATP, 22.3 mm Tricine, 0.11 mM EGTA, 0.55 mM Luciferin, 0.15 mM Coenzyme A, 0.5 mM HEPES, 10 mM Magnesium sulphatc) on a standard luminometer plate reader (PE Biosystems, NorthStar Reader), using recommended operating instructions and conditions.
The dose response curves are generated from an 8 point curve with concentrations differing by ½ LOG units. Each point represents the average of 4 wells of data from a 384 well plate. A curve for the data is generated by using the equation:
Y=Bottom+(Top−Bottom)/(1+10̂((Log EC50−X)*HillSlope))
The EC50/IC50 is therefore defined as the concentration at which an agonist or antagonist elicits a response that is half way between the Top (maximum) and Bottom (baseline) values. The EC50/IC50 values represented are the averages of at least 3 independent experiments.

[1] = agonist activity, one or more of the in vitro assays, read-out: EC50

Compound	EC50 [1] [µM]	Emax [%]	EC50 [µM]
CC(C)OC(=O)C1=CN(C(=O)c2c(F)cccc2F)CC(C)(C)c2c1[nH]c1ccccc21 [Example 75, 1-methylethyl 3-[(2,6-difluorophenyl)carbonyl]-1,1-dimethyl-1,2,3,6-tetrahydroazepino[4,5-b]indole-5-carboxylate]	0.001 to 0.01	> 100	–
CC(C)OC(=O)C1=CN(C(=O)c2ccc(F)c(F)c2F)CC(C)(C)c2c1[nH]c1ccccc21 [Example 77, 1-methylethyl 1,1-dimethyl-3-[(2,3,4-trifluorophenyl)carbonyl]-1,2,3,6-tetrahydroazepino[4,5-b]indole-5-carboxylate]	0.001 to 0.01	> 100	–
CC(C)OC(=O)C1=CN(C(=O)c2c(F)cc(F)cc2F)CC(C)(C)c2c1[nH]c1ccccc21 [Example 78, 1-methylethyl 1,1-dimethyl-3-[(2,4,6-trifluorophenyl)carbonyl]-1,2,3,6-tetrahydroazepino[4,5-b]indole-5-carboxylate]	0.01 to 0.1	> 100	–
CC(C)OC(=O)C1=CN(C(=O)c2cc(F)c(F)cc2F)CC(C)(C)c2c1[nH]c1ccccc21 [Example 79, 1-methylethyl 1,1-dimethyl-3-[(2,4,5-trifluorophenyl)carbonyl]-1,2,3,6-tetrahydroazepino[4,5-b]indole-5-carboxylate]	0.001 to 0.01	> 100	–
CC(C)OC(=O)C1=CN(C(=O)c2ccc(C(F)(F)F)c(F)c2)CC(C)(C)c2c1[nH]c1ccccc21 [Example 84, 1-methylethyl 3-{[3-fluoro-4-(trifluoromethyl)phenyl]car-bonyl}-1,1-dimethyl-1,2,3,6-tetrahydroazepino[4,5-b]indole-5-carboxylate]	0.01 to 0.1	> 100	–
Cc1ccc(C(=O)N2C=C(C(=O)OC(C)C)c3[nH]c4ccccc4c3C(C)(C)C2)cc1 [Example 87, 1-methylethyl 1,1-dimethyl-3-[(4-methylphenyl)carbonyl]-1,2,3,6-tetrahydroazepino[4,5-b]indole-5-carboxylate]	0.01 to 0.1	> 100	–
COc1cccc(C(=O)N2C=C(C(=O)OC(C)C)c3[nH]c4ccccc4c3C(C)(C)C2)c1 [Example 88, 1-methylethyl 1,1-dimethyl-3-{[3-(methyloxy)phenyl]carbonyl}-1,2,3,6-tetrahydroazepino[4,5-b]indole-5-carboxylate]	0.01 to 0.1	> 100	–
COc1ccc(C(=O)N2C=C(C(=O)OC(C)C)c3[nH]c4ccccc4c3C(C)(C)C2)cc1 [Example 89, 1-methylethyl 1,1-dimethyl-3-{[4-(methyloxy)phenyl)carbonyl}-1,2,3,6-tetrahydroazepino[4,5-b]indole-5-carboxylate]	0.001 to 0.01	> 100	–
CC(C)OC(=O)C1=CN(C(=O)c2cccc3c2OC(F)(F)O3)CC(C)(C)c2c1[nH]c1ccccc21 [Example 91, 1-methylethyl 3-[(2,2-difluoro-1,3-benzodioxol-4-yl)carbonyl]-1,1-dimethyl-1,2,3,6-tetrahydroazepino[4,5-b]indole-5-carboxylate]	0.01 to 0.1	> 100	–
CC(C)OC(=O)C1=CN(C(=O)c2ccc3c(c2)OC(F)(F)O3)CC(C)(C)c2c1[nH]c1ccccc21 [Example 92, 1-methylethyl 3-[(2,2-difluoro-1,3-benzodioxol-5-yl)carbonyl]-1,1-dimethyl-1,2,3,6-tetrahydroazepino[4,5-b]indole-5-carboxylate]	0.1 to 1	> 100	–
CC(C)OC(=O)C1=CN(C(=O)c2ccc(C3CCNCC3)cc2)CC(C)(C)c2c1[nH]c1ccccc21 [Example 94, 1-methylethyl 1,1-dimethyl-3-[(4-piperidin-4-ylphenyl)carbonyl]-1,2,3,6-tetrahydroazepino[4,5-b]indole-5-carboxylate]	> 10	–	–
CC(C)OC(=O)C1=CN(C(=O)c2cccc(C3CCNCC3)c2)CC(C)(C)c2c1[nH]c1ccccc21 [Example 95, 1-methylethyl 1,1-dimethyl-3-[(3-piperidin-4-ylphenyl)carbonyl]-1,2,3,6-tetrahydroazepino[4,5-b]indole-5-carboxylate]	> 10	–	–
CCN(CC)CCNC(=O)Oc1ccc2c3c([nH]c2c1)C(C(=O)OC(C)C)=CN(C(=O)c1ccc(F)c(F)c1)CC3(C)C [Example 97, 1-methylethyl 8-[({[2-(diethylamino)ethyl]amino}carbonyl)oxy]-3-[(3,4-difluorophenyl)carbonyl]-1,1-dimethyl-1,2,3,6-tetrahydroazepino[4,5-b]indole-5-carboxylate]	–	> 100	0.01 to 0.1
CC(C)OC(=O)C1=CN(C(=O)c2ccc(F)c(F)c2)CC(C)(C)c2c1[nH]c1cc(OCCN(C)C)ccc21 [Example 98, 1-methylethyl 3-[(3,4-difluorophenyl)carbonyl]-8-{[2-(dimethylamino)ethyl]oxy}-1,1-dimethyl-1,2,3,6-tetrahydroazepino[4,5-b]indole-5-carboxylate]	0.1 to 1	< 40	–
CC(C)OC(=O)C1=CN(C(=O)c2ccc(F)c(F)c2)CC(C)(C)c2c1[nH]c1cc(OCCCN(C)C)ccc21 [Example 99, 1-methylethyl 3-[(3,4-difluorophenyl)carbonyl]-8-{[3-(dimethylamino)propyl]oxy}-1,1-dimethyl-1,2,3,6-tetrahydroazepino[4,5-b]indole-5-carboxylate]	0.1 to 1	40 to 60	–
COc1ccc(C(=O)N2C=C(C(=O)OC(C)C)c3[nH]c4ccccc4c3C(C)(C)C2)cc1OC [Example 100, 1-methylethyl 3-{[3,4-bis(methyloxy)phenyl]car-bonyl}-1,1-dimethyl-1,2,3,6-tetrahydroazepino[4,5-b]indole-5-carboxylate]	0.01 to 0.1	> 100	–
CC1(C)CN(C(=O)c2ccc(F)c(F)c2)C=C(C(=O)NCCC(=O)O)c2[nH]c3ccccc3c21 [Example 101, N-({3-[(3,4-difluorophenyl)carbonyl]-1,1-dimethyl-1,2,3,6-tetrahydroazepino[4,5-b]indol-5-yl}carbonyl)-beta-alanine]	> 10	–	–
CNC(=O)Oc1ccc2c3c([nH]c2c1)C(C(=O)OC(C)C)=CN(C(=O)c1ccc(F)c(F)c1)CC3(C)C [Example 102, 1-methylethyl 3-[(3,4-difluorophenyl)carbonyl]-1,1-dimethyl-8-{[(methylamino)carbonyl]oxy}-1,2,3,6-tetrahydroazepino[4,5-b]indole-5-carboxylate]	–	< 40	0.01 to 0.1
CCN(CC)CCOc1ccc2c3c([nH]c2c1)C(C(=O)OC(C)C)=CN(C(=O)c1ccc(F)c(F)c1)CC3(C)C [Example 103, 1-methylethyl 8-{[2-(diethylamino)ethyl]oxy}-3-[(3,4-difluorophenyl)carbonyl]-1,1-dimethyl-1,2,3,6-tetrahydroazepino[4,5-b]indole-5-carboxylate]	0.1 to 1	< 40	–
CCN(CC)CCCOc1ccc2c3c([nH]c2c1)C(C(=O)OC(C)C)=CN(C(=O)c1ccc(F)c(F)c1)CC3(C)C [Example 104]	0.1 to 1	60 to 80	–
COCCOc1ccc2c3c([nH]c2c1)C(C(=O)OC(C)C)=CN(C(=O)c1ccc(F)c(F)c1)CC3(C)C [Example 105, 1-methylethyl 3-[(3,4-difluorophenyl)carbonyl]-1,1-dimethyl-8-{[2-(methyloxy)ethyl]oxy}-1,2,3,6-tetrahydroazepino[4,5-b]indole-5-carboxylate]	0.1 to 1	80 to 100	–
CC(=O)C1=CN(C(=O)c2ccc(F)c(F)c2)CC(C)(C)c2c1[nH]c1ccccc21 [Example 106, 1-{3-[(3,4-difluorophenyl)carbonyl]-1,1-dimethyl-1,2,3,6-tetrahydroazepino[4,5-b]indol-5-yl}ethanone]	0.1 to 1	> 100	–
